Results taken from ChEMBL document CHEMBL1240441, “New pyrazoline derivatives and their antidepressant activity” (Eur J Med Chem, 2010).

Legend:
Mus musculus [1] = assay: Neurotoxicity in Swiss albino mouse assessed as effect on motor coordination at 100 mg/kg, ip by rotarod test; type: toxicity, organism-based; set-up: dose 100 mg/kg, route intraperitoneal; conditions: in vivo
Mus musculus [2] = assay: Antidepressant-like activity in Swiss albino mouse assessed as effect on swimming time at 100 mg/kg, ip after 24 hrs measured for 5 mins by modified forced swimming test (reference value: 95 +/- 9.7 sec); type: functional; conditions: route intraperitoneal
Mus musculus [3] = assay: Antidepressant-like activity in Swiss albino mouse assessed as effect on climbing time at 100 mg/kg, ip after 24 hrs measured for 5 mins by modified forced swimming test (reference value: 56.8 +/- 2.6 sec); type: functional; conditions: route intraperitoneal
Mus musculus [4] = assay: Antidepressant-like activity in Swiss albino mouse assessed as effect on immobility time at 100 mg/kg, ip after 24 hrs measured for 5 mins by modified forced swimming test (reference value: 102.2 +/- 7.5 sec); type: functional; conditions: route intraperitoneal
Mus musculus [5] = assay: Antidepressant-like activity in Swiss albino mouse assessed as reduction of immobility time at 100 mg/kg, ip measured last 4 mins for 6 mins test by tail suspension test (reference value: 116.4 +/- 4.6 sec); type: functional; conditions: route intraperitoneal
Mus musculus [6] = assay: Antidepressant-like activity in Swiss albino mouse assessed as effect on climbing time at 10 mg/kg, ip after 24 hrs measured for 5 mins by modified forced swimming test (reference value: 56.8 +/- 2.6 sec); type: functional; conditions: route intraperitoneal
Mus musculus [7] = assay: Antidepressant-like activity in Swiss albino mouse assessed as effect on immobility time at 10 mg/kg, ip after 24 hrs measured for 5 mins by modified forced swimming test (reference value: 102.2 +/- 7.5 sec); type: functional; conditions: route intraperitoneal
Mus musculus [8] = assay: Antidepressant-like activity in Swiss albino mouse assessed as effect on swimming time at 10 mg/kg, ip after 24 hrs measured for 5 mins by modified forced swimming test (reference value: 95 +/- 9.7 sec); type: functional; conditions: route intraperitoneal
Mus musculus [9] = assay: Antidepressant-like activity in Swiss albino mouse assessed as reduction of immobility time at 10 mg/kg, ip measured last 4 mins for 6 mins test by tail suspension test (reference value: 116.4 +/- 4.6 sec); type: functional; conditions: route intraperitoneal

Nn1c(CCc2ccc(O)cc2)nnc1SCC(=O)N1N=C(c2cccs2)CC1c1ccc2c(c1)OCO2 (centres undefined)
Activity (Mus musculus [1]): Non-toxic
Time (Mus musculus [2]): 144.7 s
Time (Mus musculus [3]): 54.1 s
Time (Mus musculus [4]): 69.9 s
Time (Mus musculus [5]): 96.1 s

Nn1c(CCc2ccc(O)cc2)nnc1SCC(=O)N1N=C(c2cccs2)CC1c1ccccc1 (centres undefined)
Activity (Mus musculus [1]): Non-toxic
Time (Mus musculus [2]): 191.8 s
Time (Mus musculus [3]): 43.3 s
Time (Mus musculus [4]): 33.3 s
Time (Mus musculus [5]): 69 s

Nn1c(CCc2ccc(O)cc2)nnc1SCC(=O)N1N=C(c2cccs2)CC1c1ccc(F)cc1 (centres undefined)
Activity (Mus musculus [1]): Non-toxic
Time (Mus musculus [2]): 153.3 s
Time (Mus musculus [3]): 48.8 s
Time (Mus musculus [4]): 52.5 s
Time (Mus musculus [5]): 78.8 s

Nn1c(CCc2ccc(O)cc2)nnc1SCC(=O)N1N=C(c2cccs2)CC1c1ccc(Cl)cc1 (centres undefined)
Activity (Mus musculus [1]): Non-toxic
Time (Mus musculus [2]): 193.7 s
Time (Mus musculus [3]): 45 s
Time (Mus musculus [4]): 40.5 s
Time (Mus musculus [5]): 72.1 s

Cc1ccc(C2CC(c3cccs3)=NN2C(=O)CSc2nnc(CCc3ccc(O)cc3)n2N)cc1 (centres undefined)
Activity (Mus musculus [1]): Non-toxic
Time (Mus musculus [2]): 147.8 s
Time (Mus musculus [3]): 54.4 s
Time (Mus musculus [4]): 58.4 s
Time (Mus musculus [5]): 85.9 s

CN(C)c1ccc(C2CC(c3cccs3)=NN2C(=O)CSc2nnc(CCc3ccc(O)cc3)n2N)cc1 (centres undefined)
Activity (Mus musculus [1]): Non-toxic
Time (Mus musculus [2]): 140 s
Time (Mus musculus [3]): 53.5 s
Time (Mus musculus [4]): 66.2 s
Time (Mus musculus [5]): 93.5 s

CNCCC(Oc1ccc(C(F)(F)F)cc1)c1ccccc1 (centres undefined) [FLUOXETINE]
Time (Mus musculus [6]): 47.8 s
Time (Mus musculus [7]): 67.6 s
Time (Mus musculus [8]): 148.5 s
Time (Mus musculus [9]): 90.6 s
